According to US10000791B2, “Measurement method for human pancreatic lipase activity” (ASAHI KASEI PHARMA CORPORATION, priority 2013, dated 2018):

System: non-pancreatic lipase
Assay: quantitative evaluation of influence of non-pancreatic lipase (measured value versus theoretical or reference value in heparin-administered samples)
Assay type: biochemical, human
Description: Next, the influence of the non-pancreatic lipase activity was obtained as follows on the assumption that the Liquitech reagent is not influenced by the non-pancreatic lipase. First, with respect to measured values of the enzyme activity obtained in samples other than the heparin-administered samples, a regression equation (an independent variable X: enzyme activity attained by Liquitech, a dependent variable Y: enzyme activity attained by the comparative example or the present example) was obtained. Next, with respect to each heparin-administered sample, the variable Y was calculated as a theoretical value by substituting the measured value of the enzyme activity obtained by the Liquitech for the variable X of the regression equation. Thereafter, with respect to each heparin-administered sample, the actually measured value of the enzyme activity obtained by the comparative example or the present example was divided by the theoretical value of the variable Y to calculate a relative percentage (%). It is noted that the acceptable range of the influence was provisionally set as within ±20% in reference to the package insert of “Liquitech Lipase Color II” describing that the accuracy is within ±15% of known activity.
In the present example, NaGDCA was selected as the conjugated bile acid and was combined with a non-conjugated bile acid, NaDCA, (mixed in equal amounts) to examine the behavior of a heparin-administered sample with the pH of a reaction solution changed to 7.1, 7.4 and 7.6. As the buffer solution, the BES buffer was used. As samples, (four) control samples (controls each containing a pancreatic lipase), (ten) normal samples and (nine) heparin-administered samples were used. As a comparative example, NaDCA (in a concentration of 30 mmol/L in the R-1) and NaTDCA (in a concentration of 10 mmol/L in the R-1) were used as the bile acid, and the reaction solution was adjusted to pH 7.95 (the Bicine buffer). Besides, “Liquitech Lipase Color II” manufactured by Roche Diagnostics was used for verifying the effect of the present example. “Liquitech Lipase Color II” was used in accordance with the package insert, and a special calibrator was used for calculating the enzyme activity. Thereafter, in the same manner as in Example 7, with respect to each heparin-administered sample, the actually measured value of the enzyme activity obtained by the comparative example or the present example was divided by the theoretical value to calculate a relative percentage (%). The influence of the non-pancreatic lipase activity and the acceptable range of the influence were the same as those in Example 7.
As a comparative example, NaDCA and NaTDCA (respectively in concentrations of 30 mmol/L and 10 mmol/L in the R-1) were used as the bile acids, and the reaction solution was adjusted to pH 7.95 by using the Bicine buffer to measure a heparin-administered sample. […] The bile acids were used in a total concentration in the R-1 of 40 mmol/L (each in 20 mmol/L in using two of them, and each in 13.3 mmol/L in using three of them). Besides, “Liquitech Lipase Color II” manufactured by Roche Diagnostics was used for verifying the effect of the present example. “Liquitech Lipase Color II” was used in accordance with the package insert, and a special calibrator was used for calculating the enzyme activity. In each of the comparative example and the present example, the lipase activity was calculated by using a molecular extinction coefficient of 6300 L/mol·cm of the reduced NADP. Thereafter, in the same manner as in Example 7, with respect to each heparin-administered sample, the actually measured value of the enzyme activity obtained by the comparative example or the present example was divided by the theoretical value to calculate a relative percentage (%). The influence of the non-pancreatic lipase activity and the acceptable range of the influence were calculated in the same manner as in Example 7.

C[C@H](CCC(=O)NCC(=O)[O-])[C@H]1CC[C@H]2[C@@H]3[C@H](O)C[C@@H]4C[C@H](O)CC[C@]4(C)[C@H]3CC[C@]12C.[Na+] [NaGCDCA, sodium glycochenodeoxycholate]
Measured value/theoretical value (Table 5) (sample Heparin 31, pH 7.0): 98.4% | Measured value/theoretical value (Table 5) (sample Heparin 31, pH 7.95): 311.8% | Measured value/theoretical value (Table 5) (sample Heparin 32, pH 7.0): 98.5% | Measured value/theoretical value (Table 5) (sample Heparin 32, pH 7.95): 492.8% | Measured value/theoretical value (Table 5) (sample PRECINORM, pH 7.0): 99.3% | Measured value/theoretical value (Table 5) (sample PRECINORM, pH 7.95): 107.6% | Measured value/theoretical value (Table 5) (sample PRECIPATH, pH 7.0): 100.9% | Measured value/theoretical value (Table 5) (sample PRECIPATH, pH 7.95): 111.6% | Measured value/theoretical value (Table 5) (sample Pool 1, pH 7.0): 101.8% | Measured value/theoretical value (Table 5) (sample Pool 1, pH 7.95): 99.4% | Measured value/theoretical value (Table 5) (sample Pool 2, pH 7.0): 89.8% | Measured value/theoretical value (Table 5) (sample Pool 2, pH 7.95): 126.2% | Measured value/theoretical value (Table 5) (sample Seraclear LP, pH 7.0): 87.0% | Measured value/theoretical value (Table 5) (sample Seraclear LP, pH 7.95): 60.4%

C[C@H](CCC(=O)NCCS(=O)(=O)[O-])[C@H]1CC[C@H]2[C@@H]3CC[C@@H]4C[C@H](O)CC[C@]4(C)[C@H]3C[C@H](O)[C@]12C.[Na+] [NaTDCA, sodium taurodeoxycholate]
actually measured value/theoretical value (Table 4) (Average of Heparin 21-25, pH 6.2): 104.1% | actually measured value/theoretical value (Table 4) (Average of Heparin 21-25, pH 6.4): 102.7% | actually measured value/theoretical value (Table 4) (Average of Heparin 21-25, pH 6.6): 97.8% | actually measured value/theoretical value (Table 4) (Average of Heparin 21-25, pH 6.9): 94.9% | actually measured value/theoretical value (Table 4) (Average of Heparin 21-25, pH 7.2): 100.9% | actually measured value/theoretical value (Table 4) (Average of Heparin 21-25, pH 7.4): 119.2% | actually measured value/theoretical value (Table 4) (Average of Heparin 21-25, pH 7.6): 212.1% | actually measured values relative to theoretical values, average (heparin-administered samples, pH 7.4 or lower): smaller than 120.0% | actually measured value/theoretical value (Table 4) (sample Heparin 21, pH 6.2): 118.4% | actually measured value/theoretical value (Table 4) (sample Heparin 21, pH 6.4): 110.6% | actually measured value/theoretical value (Table 4) (sample Heparin 21, pH 6.6): 109.4% | actually measured value/theoretical value (Table 4) (sample Heparin 21, pH 6.9): 99.9% | actually measured value/theoretical value (Table 4) (sample Heparin 21, pH 7.2): 99.1% | actually measured value/theoretical value (Table 4) (sample Heparin 21, pH 7.4): 118.3% | actually measured value/theoretical value (Table 4) (sample Heparin 21, pH 7.6): 167.2% | actually measured value/theoretical value (Table 4) (sample Heparin 22, pH 6.2): 100.6% | actually measured value/theoretical value (Table 4) (sample Heparin 22, pH 6.4): 100.8% | actually measured value/theoretical value (Table 4) (sample Heparin 22, pH 6.6): 93.6% | actually measured value/theoretical value (Table 4) (sample Heparin 22, pH 6.9): 86.0% | actually measured value/theoretical value (Table 4) (sample Heparin 22, pH 7.2): 98.5% | actually measured value/theoretical value (Table 4) (sample Heparin 22, pH 7.4): 107.8% | actually measured value/theoretical value (Table 4) (sample Heparin 22, pH 7.6): 162.0% | actually measured value/theoretical value (Table 4) (sample Heparin 23, pH 6.2): 112.9% | actually measured value/theoretical value (Table 4) (sample Heparin 23, pH 6.4): 115.8% | actually measured value/theoretical value (Table 4) (sample Heparin 23, pH 6.6): 111.4% | actually measured value/theoretical value (Table 4) (sample Heparin 23, pH 6.9): 114.9% | actually measured value/theoretical value (Table 4) (sample Heparin 23, pH 7.2): 110.5% | actually measured value/theoretical value (Table 4) (sample Heparin 23, pH 7.4): 129.2% | actually measured value/theoretical value (Table 4) (sample Heparin 23, pH 7.6): 281.9% | actually measured value/theoretical value (Table 4) (sample Heparin 24, pH 6.2): 95.4% | actually measured value/theoretical value (Table 4) (sample Heparin 24, pH 6.4): 91.7% | actually measured value/theoretical value (Table 4) (sample Heparin 24, pH 6.6): 83.0% | actually measured value/theoretical value (Table 4) (sample Heparin 24, pH 6.9): 84.4% | actually measured value/theoretical value (Table 4) (sample Heparin 24, pH 7.2): 96.0% | actually measured value/theoretical value (Table 4) (sample Heparin 24, pH 7.4): 113.2% | actually measured value/theoretical value (Table 4) (sample Heparin 24, pH 7.6): 215.2% | actually measured value/theoretical value (Table 4) (sample Heparin 25, pH 6.2): 93.1% | actually measured value/theoretical value (Table 4) (sample Heparin 25, pH 6.4): 94.7% | actually measured value/theoretical value (Table 4) (sample Heparin 25, pH 6.6): 91.7% | actually measured value/theoretical value (Table 4) (sample Heparin 25, pH 6.9): 89.5% | actually measured value/theoretical value (Table 4) (sample Heparin 25, pH 7.2): 100.2% | actually measured value/theoretical value (Table 4) (sample Heparin 25, pH 7.4): 127.4% | actually measured value/theoretical value (Table 4) (sample Heparin 25, pH 7.6): 234.4%
